Experiments:
L1210 = experiment: In vitro cytotoxicity, tetrazolium microculture assay, L1210; type: cell-based; details: Mus musculus, 48 h; L1210 murine leukaemia, incubated for 2 days; read-out: IC50, the concentration of cytotoxic compound that inhibits the proliferation of the treated cells by 50%
Method: (§1) Two cell lines were used: • 1 murine leukaemia, L1210, • 1 human epidermoid carcinoma: KB-3-1
(§2) The cells are cultured in RPMI 1640 complete culture medium comprising 10% fcetal calf serum, 2 mM glutamine, 50 units/ml of penicillin, 50 μg/ml of streptomycin and 10 mM Hepes, pH 7.4. The cells are distributed on microplates and are exposed to the cytotoxic compounds. The cells are then incubated for 2 days (L1210) or 4 days (KB-3-1) in an incubator at 37° C. in the presence of 5% CO2. The number of viable cells is then quantified by a colorimetric assay, the tetrazolium microculture assay (Cancer Res. 1987, 47, 939-942).
(§3) The results are expressed as IC50, the concentration of cytotoxic compound that inhibits the proliferation of the treated cells by 50%.

KB-3-1 = experiment: In vitro cytotoxicity, tetrazolium microculture assay, KB-3-1; type: cell-based; details: 96 h; KB-3-1 human epidermoid carcinoma, incubated for 4 days; read-out: IC50, the concentration of cytotoxic compound that inhibits the proliferation of the treated cells by 50%
Method: as §1, §2, §3

Structure (SMILES)	melting point [°C]	IC50 (L1210) [nM]	IC50 (KB-3-1) [nM]
COc1cc2c(c3c1c(=O)c1cc4ccccc4nc1n3C)[C@H]1OC(=O)O[C@H]1C(C)(C)O2 (racemic) [Example 5, (±)-cis-7-Methoxy-4,4,15-trimethyl-15,15c-dihydro-4H-benzo[b][1,3]-dioxolo[4′,5′:3,4]chromeno[6,5-g][1,8]naphthyridin-2,8[3aH]-dione]	234	–	–
Cn1c2nc3ccccc3cc2c(=O)c2c(O)cc3c(c21)C=CC(C)(C)O3 [Example 1, 6-Hydroxy-3,3,14-trimethyl-3,14-dihydro-7H-benzo-[b]chromeno-[6,5-g][1,8]naphthyridin-7-one]	278	–	–
COc1cc2c(c3c1c(=O)c1cc4ccccc4nc1n3C)[C@@H](OC(C)=O)[C@@H](OC(C)=O)C(C)(C)O2 (racemic) [Example 4, (±)-cis-1,2-Diacetoxy-6methoxy-3,3,14-trimethyl-1,2,3,14-tetrahydro-7H-benzo[b]chromeno[6,5-g][1,8]naphthyridin-7-one]	244	320	37
COc1cc2c(c3c1c(=O)c1cc4ccccc4nc1n3C)[C@@H](O)[C@@H](O)C(C)(C)O2 (racemic) [Example 3, (±)-cis-1,2-Dihydroxy-6-methoxy-3,3,14-trimethyl-1,2,3,14-tetrahydro-7H-benzo[b]chromeno[6,5-g][1,8]naphthyridin-7-one]	298	–	–
COc1cc2c(c3c1c(=O)c1cc4ccccc4nc1n3C)C=CC(C)(C)O2 [Example 2, 6-Methoxy-3,3,14-trimethyl-3,14-dihydro-7H-benzo[b]chromeno-[6,5-g][1,8]naphthyridin-7-one]	270	–	–
